Experimental data as given in patent US10835532B2, “Muscarinic agonists as cognitive enhancers” (The University of Toledo, priority 2008, dated 2020).
Entries after “also recorded” stand apart in the source; their conditions may differ.

Tests used:
[1] = tested on: Long Evans rats; test: Delayed spontaneous alternation in four-arm cross maze (working memory); type: in vivo, rat
Description: Various neurodegenerative diseases and psychiatric disorders are marked by alterations in brain M1 muscarinic cholinergic receptor function and cognitive deficits including working memory and cognitive flexibility impairments. Alleviating such deficits in conditions such as Alzheimer's disease and schizophrenia has been limited due to a lack of agonists with M1 muscarinic receptor subtype specificity. CDD-102A is a functionally-selective M1 agonist with lower activity at other muscarinic receptor subtypes. The present experiment investigated the effects of systemic treatment with CDD-102A on working memory and/or attentional set-shifting in rats. All testing occurred in a four-arm cross maze. Delayed (30 sec) spontaneous alternation in Long Evans rats was used as a test for working memory. […] A shift between a place and visual cue discrimination was used as an attentional set-shifting test. In this set of experiments, rats received either vehicle or CDD-102A (0.003-0.1 mg/kg) 30 minutes prior to testing in a place-visual cue set-shifting task. To evaluate the effects of muscarinic agonists on memory function in normal animals, rats were tested on a delayed spontaneous alternation task in a modified T-maze. The task takes advantage of rats' natural tendency to alternate. Animals were placed in a 4-arm maze shaped like a “+”. If a rat chose four different arms in four consecutive choices it was scored as an alternation. A delay was inserted between arm choices to help assess memory function. In the delay version of the task, CDD-0102A (a functionally selective M1 agonist) improved memory function in a dose dependent manner (see FIG. 1). All testing was carried out in a four-arm cross-maze made of 0.6 cm thick black plastic was used for all behavioral testing. The maze was placed on a table that was 72 cm above the floor. Each arm was 55 cm long 10 cm wide. The height of the arm walls was 15.0 cm. […] The number and sequence of arm entries was recorded. An arm entry was recorded when all four paws entered an arm. […]

[2] = tested on: rats; test: Place-visual cue attentional set-shifting task (cognitive flexibility); type: in vivo, rat
Description: Various neurodegenerative diseases and psychiatric disorders are marked by alterations in brain M1 muscarinic cholinergic receptor function and cognitive deficits including working memory and cognitive flexibility impairments. Alleviating such deficits in conditions such as Alzheimer's disease and schizophrenia has been limited due to a lack of agonists with M1 muscarinic receptor subtype specificity. CDD-102A is a functionally-selective M1 agonist with lower activity at other muscarinic receptor subtypes. The present experiment investigated the effects of systemic treatment with CDD-102A on working memory and/or attentional set-shifting in rats. All testing occurred in a four-arm cross maze. Delayed (30 sec) spontaneous alternation in Long Evans rats was used as a test for working memory. […] A shift between a place and visual cue discrimination was used as an attentional set-shifting test. In this set of experiments, rats received either vehicle or CDD-102A (0.003-0.1 mg/kg) 30 minutes prior to testing in a place-visual cue set-shifting task. A treatment was administered either prior to the acquisition phase or prior to the shift phase. […] To examine cognitive flexibility, animals were evaluated for their ability to learn a place-visual cue task. Local cues in the maze arms included a black board in one arm and white board in the other arm. The cues were switched between the choice arms randomly across trials so the same cue was not always in the same location. Rats first learned to use a place strategy—always enter the same arm to receive a cereal reinforcement. Criterion was set at 10 consecutive correct trials. No treatment was given to rats prior to learning the place strategy test. The results are shown with the two bars on the left side of the graph in FIG. 2, showing that learning of a place-visual cue task. CDD-0102A, at a dose of 0.03 mg/kg decreased the number of trials to criterion (10 consecutive correct choices). Vehicle (N=3), CDD-0102A (N=4). The following day, rats had to inhibit using a place strategy and learn a visual cue strategy. That is, a rat had to choose the arm that contained a particular color cue (e.g., black). The criterion again was set at 10 consecutive correct trials. Rats received either saline (N=3) or CDD-0102A at 0.03 or 0.1 mg/kg (N=4) 30 minutes prior to testing. The results are shown in the middle of FIG. 2. […] Similar studies evaluated the ability of animals to shift from learning a visual cue task to a place strategy. Again criterion was set at 10 consecutive correct trials. Rats received either saline (N=3) or CDD-0102A at 0.03 or 0.1 mg/kg (N=4) 30 minutes prior to testing. The results are shown in the middle of FIG. 3. […] All testing was carried out in a four-arm cross-maze made of 0.6 cm thick black plastic was used for all behavioral testing. The maze was placed on a table that was 72 cm above the floor. Each arm was 55 cm long 10 cm wide. The height of the arm walls was 15.0 cm. Each arm contained a food well (3.2 cm diameter×1.6 cm high) that was 3 cm away from the end wall. Each food-well hole was 2.3 cm in diameter and 1.6 cm deep.

[3] = tested on: rat; test: Salivation following i.p. injections in the rat; type: in vivo
Description: FIG. 6 presents a graph comparing the effects of CDD-0102A on memory function and salivation following i.p. injections in the rat.

[4] = rats, 0.03 or 0.1 mg/kg 30 minutes prior to testing, compared to controls, hydrochloride
[5] = shift from place cue task to visual cue task, 0.03 and 0.1 mg/kg
[6] = shift from visual cue task to place cue task, 0.03 and 0.1 mg/kg

Structure (SMILES): CCc1noc(C2CN=CNC2)n1.Cl (stereo not shown) [CDD-0102A, 5-(3-ethyl-1,2,4-oxadiazol-5-yl)-1,4,5,6-tetrahydropyrimidine hydrochloride]
- Memory function in the delay version of the spontaneous alternation task ([1]; normal rats, i.p., dose dependent (FIG. 1)): improved
- Delayed spontaneous alternation performance ([1]; rats, 0.1, 0.3 and 1 mg/kg i.p. 30 minutes before testing, 30 sec delay, listed as CDD-102A, hydrochloride): significantly enhanced
- Number of arm entries (locomotor activity) ([1]; rats, all the doses tested, i.p.): did not alter
- Acquisition of a place or visual cue discrimination ([2]; rats, 0.003-0.1 mg/kg 30 minutes prior to the acquisition phase): did not affect
- Shift between a place and visual cue discrimination ([2]; rats, 0.03 and 0.1 mg/kg, 30 minutes prior to the shift phase): significantly enhanced
- Trials to criterion (10 consecutive correct choices), shift from place cue task to visual cue task [2, 4]: about half the trials; also recorded: decreased
- Trials to criterion (10 consecutive correct choices), shift from visual cue task to place cue task [2, 4]: decreased; also recorded: about half the trials
- Ability to initially inhibit a previously relevant strategy and maintain a new, relevant strategy once selected ([2]; rats, shift to the place or to the visual cue strategy): significantly increased
- Number of never-reinforced errors [2, 5]: decreased
- Number of perseverative errors [2, 5]: decreased
- Number of regressive errors [2, 5]: decreased
- Number of never-reinforced errors [2, 6]: no significant impact
- Number of perseverative errors [2, 6]: decreased
- Number of regressive errors [2, 6]: decreased
- Lowest dose producing salivation [3]: 0.3 mg/kg
- Separation between the dose enhancing place-visual cue learning (0.03 mg/kg i.p.) and the lowest dose producing salivation [3]: ten-fold lower
